The subject of one assay is human neutrophils. Nature of the assay: Human neutrophil oxidative activity, luminol-enhanced chemiluminescence. Type of assay: cell-based. The note with it: for PMN oxid + roli (-log EC50): human neutrophil experiment w/Rolipram; for PMN oxid (-log EC50) / EC50: human neutrophil experiment w/o Rolipram; for EC50: Homo sapiens, Neutrophil, read-out: PMN oxid (-log EC50) (converted). How it is done:
Chemiluminescence Methods: Lumninol enhanced chemiluminescence, a measure of neutrophil oxidative activity, is dependent upon both superoxide production and mobilization of the granule enzyme myeloperoxidase. The light is emitted from unstable high-energy oxygen species such as hypochlorous acid and singlet oxygen generated by activated neutrophils.
The plate was incubated 5 min (37 C) and then fMLP (50 l in HA; final concentration […]) was added to all wells.
Data are presented as peak chemiluminescence as percent of activity in the absence of an adenosine agonist. The EC50 was determined using PRISM software. All compounds were tested with PMNs from three separate donors.
Lummol-enhanced chemiluminescence, a measure of neutrophil oxidative activity, is dependent upon both superoxide production and mobilization of the lysosomal granule enzyme myeloperoxidase. The light is emitted from unstable high-energy oxygen species generated by activated neutrophils. Purified neutrophils (5-10×10^5/ml) were incubated in Hanks balanced salt solution containing 0.1% human serum albumin (1 ml) with the tested A2A agonist with or without rolipram and with or without tumor necrosis factor-alpha (1 U/ml) for 30 minutes at 37° C. in a shaking water bath. […] Chemiluminescence is reported as relative peak light emitted (=height of the curve) compared to samples with tumor necrosis factor-alpha and without agonist or rolipram.

A further assay has as its target T1, human A1 AR (Homo sapiens, UniProt P30542).
T1 sequence (P30542 1-326): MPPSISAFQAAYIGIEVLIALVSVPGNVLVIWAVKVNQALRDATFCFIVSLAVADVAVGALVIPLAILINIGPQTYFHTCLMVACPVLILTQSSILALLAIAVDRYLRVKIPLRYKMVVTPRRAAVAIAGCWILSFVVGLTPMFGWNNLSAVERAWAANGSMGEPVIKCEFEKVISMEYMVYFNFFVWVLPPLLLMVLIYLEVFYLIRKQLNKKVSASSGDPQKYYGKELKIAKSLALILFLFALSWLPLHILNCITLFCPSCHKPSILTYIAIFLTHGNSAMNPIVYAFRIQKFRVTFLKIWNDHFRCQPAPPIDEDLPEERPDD
In words: Radioligand competition binding (125I-ABA) to human A1 AR in CHO K1 cell membranes. The note with it: for Ki: Ki from competition binding, 125I-ABA, CHO K1 cell membranes; for A1/A2A: selectivity ratio A1 over A2A. (In general: Displacement assays read how much labelled ligand stays bound in the presence of the test substance.)

The next assay concerns the target T2, A3 AR (Homo sapiens, UniProt P0DMS8).
T2 sequence (P0DMS8 1-318): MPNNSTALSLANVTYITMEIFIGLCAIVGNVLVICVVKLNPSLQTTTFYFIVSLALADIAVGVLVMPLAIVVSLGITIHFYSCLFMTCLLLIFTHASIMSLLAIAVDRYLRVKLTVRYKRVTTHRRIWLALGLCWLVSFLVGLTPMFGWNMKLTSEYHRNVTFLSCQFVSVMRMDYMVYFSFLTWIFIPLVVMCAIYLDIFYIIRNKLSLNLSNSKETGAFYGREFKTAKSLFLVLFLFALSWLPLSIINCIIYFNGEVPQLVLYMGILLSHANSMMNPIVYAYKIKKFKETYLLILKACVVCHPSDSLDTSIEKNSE
Nature of the assay: Radioligand competition binding (125I-ABA) to human A3 AR in HEK 293 cell membranes. To be noted: for Ki: Ki from competition binding, 125I-ABA, HEK 293 cell membranes; for A3/A2A: selectivity ratio A3 over A2A.

Assay [1] concerns the target recombinant human A2A receptors (Homo sapiens, UniProt P29274). Nature of the assay: Radioligand competition binding to recombinant human A2A receptors in Sf9 cell membranes. To be noted: Ki from competition binding, Sf9 cell membranes.

This is an account of results in patent publication US7737127B2, “2-propynyl adenosine analogs having A2A agonist activity and compositions thereof” (University of Virginia Patent Foundation, priority 2001, dated 2010).

Where two headings read alike, the source gives them in different places.

recombinant human A2A receptors, sequence (P29274 whole entry): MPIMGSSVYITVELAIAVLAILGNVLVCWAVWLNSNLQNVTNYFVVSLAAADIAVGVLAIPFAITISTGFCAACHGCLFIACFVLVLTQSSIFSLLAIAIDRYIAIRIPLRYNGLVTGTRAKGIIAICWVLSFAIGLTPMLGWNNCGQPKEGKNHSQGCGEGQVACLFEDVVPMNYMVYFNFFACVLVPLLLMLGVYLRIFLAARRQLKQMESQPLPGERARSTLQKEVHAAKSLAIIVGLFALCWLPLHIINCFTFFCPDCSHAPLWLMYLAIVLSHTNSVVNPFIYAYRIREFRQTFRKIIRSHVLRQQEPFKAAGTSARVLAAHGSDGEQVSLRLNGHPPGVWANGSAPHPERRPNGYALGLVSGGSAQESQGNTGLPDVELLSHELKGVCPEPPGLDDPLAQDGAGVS
Method for A3 AR: (§1) Sf9 cells were cultured in Grace's medium supplemented with 10% fetal bovine serum, 2.5 μg/ml amphotericin B and 50 μg/ml gentamycin in an atmosphere of 50% N2/50% O2. […] Infected cells were harvested 3 days post-infection and washed twice in insect PBS (PBS pH 6.3). Cells were then resuspended in lysis buffer (20 mM HEPES pH 7.5, 150 mM NaCl, 3 mM MgCl2, 1 mM β-mercaptoethanol (BME), 5 μg/mL leupeptin, 5 μg/mL pepstatin A, 1 μg/mL aprotinin, and 0.1 mM PMSF) and snap frozen for storage at −80° C. Cells were thawed on ice, brought to 30 mL total volume in lysis buffer, and burst by N2 cavitation (600 psi for 20 minutes). A low-speed centrifugation was performed to remove any unlysed cells (1000×g for 10 minutes), followed by a high-speed centrifugation (17,000×g for 30 minutes). The pellet from the final centrifugation was homogenized in buffer containing 20 mM HEPES pH 8, 100 mM NaCl, 1% glycerol, 2 μg/mL leupeptin, 2 μg/mL pepstatin A, 2 μg/mL Aprotinin, 0.1 mM PMSF, and 10 μM GDP using a small glass homogenizer followed by passage through a 26 gauge needle. Membranes were aliquoted, snap frozen in liquid N2, and stored at −80° C.
(§2) Binding experiments were performed in triplicate with 5 μg (A2A) or 25 μg (A1 and A3) membrane protein in a total volume of 0.1 mL HE buffer (20 mM HEPES and 1 mM EDTA) with 1 U/mL adenosine deaminase and 5 mM MgCl2 with or without 50 μM GTPγS. Membranes were incubated with radioligands at room temperature for three hours (for agonists) or two hours (for antagonists) in Millipore Multiscreene® 96-well GF/C filter plates and assays were terminated by rapid filtration on a cell harvester (Brandel, Gaithersburg, Md.) followed by 4×150 μl washes over 30 seconds with ice cold 10 mM Tris-HCl, pH 7.4, 10 mM MgCl2.
Method for human A1 AR: as §1, §2

Turning to `CCNC(=O)[C@H]1O[C@@H](n2cnc3c(N)nc(C#CC4(O)CCCCNC4=O)nc32)C(O)C1O` (single isomer, unassigned) [JR-3243B, 5-[6-Amino-2-(3-hydroxy-2-oxo-azepan-3-ylethynyl)purin-9-yl]-3,4-dihydroxytetrahydrofuran-2-carboxylic acid ethylamide], in the assay with human neutrophils, the “PMN oxid + roli (-log EC50)” value was determined as 8.91. Further, in the assay with human neutrophils, the “PMN oxid (-log EC50)” value was 7.81. Moreover, the results for the Ki (at human A1 AR (A1 ± SEM); on A3 AR (A3 ± SEM); in assay [1] (A2A ± SEM)) were 12 ± 5 nM, 3.34 ± 0.48 nM and 2.25 ± 0.35 nM, respectively. In addition, the A1/A2A on human A1 AR came to 5.3. The A3/A2A at A3 AR is on record as 1.5.

As to `CCNC(=O)[C@H]1O[C@@H](n2cnc3c(N)nc(C#CCC4CCC(C(C)=O)CC4)nc32)C(O)C1O` (stereo in doubt) [JR-3119, 5-{2-[3-(4-Acetyl-cyclohexyl)-prop-1-ynyl]-6-aminopurin-9-yl}-3,4-dihydroxytetrahydrofuran-2-carboxylic acid ethylamide], the EC50 – broadly, the concentration that produces a half-maximal response – in the assay with human neutrophils is 28.8 nM. The “PMN oxid + roli (-log EC50)” value in the assay on human neutrophils is reported as 8.7. Besides, the Ki at human A1 AR (A1 ± SEM) is 28.7 ± 3.3 nM; at A3 AR (A3 ± SEM) it was 18.6 ± 4.4 nM; in assay [1] (A2A ± SEM) it was 2.4 ± 0.2 nM. Further, on human A1 AR, the A1/A2A is given as 11.9. For the same compound, on A3 AR, the A3/A2A is given as 7.7.

Consider `CCNC(=O)[C@H]1O[C@@H](n2cnc3c(N)nc(C#CC4(O)CC(C)(C)CC(C)(C)C4)nc32)C(O)C1O` (stereo in doubt) [JR-3163, 5-[6-Amino-2-(1-hydroxy-3,3,5,5-tetramethyl-cyclohexylethynyl)-purin-9-yl]-3,4-dihydroxytetrahydrofuran-2-carboxylic acid ethylamide], for which the EC50 in the assay with human neutrophils was 537 nM. Moreover, in the assay with human neutrophils, the “PMN oxid + roli (-log EC50)” value was 7.67. In addition, the values for the Ki (at human A1 AR (A1 ± SEM); on A3 AR (A3 ± SEM); in assay [1] (A2A ± SEM)) were 784 ± 94 nM, 152 ± 62 nM and 11.1 ± 2.8 nM, respectively. For the same compound, the A1/A2A on human A1 AR amounted to 70.6. Also, the A3/A2A at A3 AR was found to be 13.7.

On to `CCNC(=O)[C@H]1O[C@@H](n2cnc3c(N)nc(C#CCC4CCC(CC)CC4)nc32)C(O)C1O` (stereo in doubt) [JR-3087, 5-{6-Amino-2-[3-(4-ethyl-cyclohexyl)-prop-1-ynyl]-purin-9-yl}-3,4-dihydroxytetrahydrofuran-2-carboxylic acid ethylamide], for which, in the assay on human neutrophils, the EC50 is 46.8 nM. Also, the “PMN oxid + roli (-log EC50)” value in the assay with human neutrophils is listed as 8.51. For the same compound, the Ki was 20.3 ± 4.5 nM at human A1 AR (A1 ± SEM), 17.8 ± 5.5 nM on A3 AR (A3 ± SEM) and 2.2 ± 0.2 nM in assay [1] (A2A ± SEM). Further, at human A1 AR, the A1/A2A came to 9.2. Besides, the A3/A2A on A3 AR stood at 8.1.

Turning to `CCNC(=O)[C@H]1O[C@@H](n2cnc3c(N)nc(C#CCC4CCC(C(N)=O)CC4)nc32)C(O)C1O` (stereo in doubt) [JR-3055, 5-{6-Amino-2-[3-(4-carbamoyl-cyclohexyl)-prop-1-ynyl]purin-9-yl}-3,4-dihydroxytetrahydrofuran-2-carboxylic acid ethylamide], the EC50 with human neutrophils is 31.6 nM. For the same compound, in the assay on human neutrophils, the “PMN oxid + roli (-log EC50)” value is 8.64. Further, the Ki on human A1 AR (A1 ± SEM) is 36 ± 2 nM; at A3 AR (A3 ± SEM), 28 ± 3 nM; in assay [1] (A2A ± SEM) it was 1.8 ± 0.2 nM. Also, at human A1 AR, the A1/A2A is 20.0. The A3/A2A at A3 AR amounted to 15.6.

With `CCNC(=O)[C@H]1O[C@@H](n2cnc3c(N)nc(C#CCN4CCC(C(=O)OCC)CC4)nc32)C(O)C1O` (stereo in doubt) [JR-3279, 1-{3-[6-Amino-9-(5-ethylcarbamoyl-3,4-dihydroxytetrahydrofuran-2-yl)-9H-purin-2-yl]-prop-2-ynyl}-piperidine-4-carboxylic acid ethyl ester], in the assay with human neutrophils, the EC50 is 13.8 nM. Further, the Ki at human A1 AR (A1 ± SEM) amounted to 14.4 nM; in assay [1] (A2A ± SEM) it was 3.82 ± 0.95 nM. Besides, the A1/A2A at human A1 AR came to 3.8. For the same compound, on A3 AR, the A3/A2A was determined as 0.0.

Regarding `CCNC(=O)[C@H]1O[C@@H](n2cnc3c(N)nc(C#CC4(O)CCC(CC)CC4)nc32)C(O)C1O` (stereo in doubt) [JR-3149, 5-[6-Amino-2-(4-ethyl-1-hydroxy-cyclohexylethynyl)-purin-9-yl]-3,4-dihydroxytetrahydrofuran-2-carboxylic acid ethylamide], the EC50 in the assay with human neutrophils was 2.19 nM. Besides, in the assay with human neutrophils, the “PMN oxid + roli (-log EC50)” value was 9.63. For the same compound, the Ki on human A1 AR (A1 ± SEM) came out at 3.8 ± 0.4 nM; at A3 AR (A3 ± SEM), 7.3 ± 1.9 nM; in assay [1] (A2A ± SEM) it was 0.5 ± 0.05 nM. Moreover, the A1/A2A at human A1 AR worked out at 7.0. Further, at A3 AR, the A3/A2A is 13.5.

As to `CCNC(=O)C1OC(n2cnc3c(N)nc(C#CC(O)C4CCCCC4)nc32)C(O)C1O` (single isomer, unassigned) [JR-3159A], the “PMN oxid + roli (-log EC50)” value in the assay on human neutrophils is given as 9.34. Also, the “PMN oxid (-log EC50)” value in the assay on human neutrophils turned out to be 8.43. Also, the Ki at human A1 AR (read-out: A1 ± SEM) was 0.9 ± 0.05 nM; at A3 AR (read-out: A3 ± SEM), 3.9 ± 1.5 nM; in assay [1] (read-out: A2A ± SEM) it was 0.6 ± 0.06 nM. At human A1 AR, the A1/A2A was found to be 1.4. On A3 AR, the A3/A2A is 6.6.

With `CCNC(=O)[C@H]1O[C@@H](n2cnc3c(N)nc(C#CC4(O)CCCC(C)(C)C4)nc32)C(O)C1O` (stereo in doubt) [JR-3201B, 5-[6Amino-2-(1-hydroxy-3,3-dimethylcyclohexylethynyl)-purin-9-yl]-3,4-dihydroxytetrahydrofuran-2-carboxylic acid ethylamide], the EC50 in the assay with human neutrophils was 8.71 nM. Also, the “PMN oxid + roli (-log EC50)” value in the assay on human neutrophils was 9.2. Also, the Ki on human A1 AR (A1 ± SEM) worked out at 157 ± 14 nM; on A3 AR (A3 ± SEM) it was 23.6 ± 0.35 nM; in assay [1] (A2A ± SEM), 1.6 ± 0.28 nM. Also, at human A1 AR, the A1/A2A is 98.1. The A3/A2A on A3 AR was 14.8.

On to `CCNC(=O)[C@H]1O[C@@H](n2cnc3c(N)nc(C#CCC4CCC(C(C)O)CC4)nc32)C(O)C1O` (stereo in doubt) [JR-3121, 5-(6-Amino-2-{3-[4-(1-hydroxy-ethyl)-cyclohexyl]-prop-1-ynyl}-purin-9-yl)-3,4-dihydroxytetrahydrofuran-2-carboxylic acid ethylamide], for which the EC50 with human neutrophils was 105 nM. For the same compound, the “PMN oxid + roli (-log EC50)” value in the assay on human neutrophils was found to be 8.31. The figures for the Ki (at human A1 AR (A1 ± SEM); on A3 AR (A3 ± SEM); in assay [1] (A2A ± SEM)) were 52.3 ± 7.6 nM, 71 ± 16 nM and 5.7 ± 0.6 nM, respectively. The A1/A2A at human A1 AR is given as 9.3. Further, the A3/A2A on A3 AR is listed as 12.6.

Consider `CCNC(=O)[C@H]1O[C@@H](n2cnc3c(N)nc(C#CCC4CCN(C(=O)OCC)CC4)nc32)C(O)C1O` (stereo in doubt) [JR-3269, 4-{3-[6-Amino-9-(5-ethylcarbamoyl-3,4-dihydroxytetrahydrofuran-2-yl)-9H-purin-2-yl]-prop-2-ynyl}-piperidine-1-carboxylic acid ethyl ester], for which the EC50 with human neutrophils is 2.24 nM. Also, the Ki came out at 134 nM at human A1 AR (A1 ± SEM), 68.6 nM on A3 AR (A3 ± SEM) and 1.26 ± 0.21 nM in assay [1] (A2A ± SEM). The A1/A2A at human A1 AR amounted to 106.0. The A3/A2A at A3 AR worked out at 54.4.

`CCNC(=O)[C@H]1O[C@@H](n2cnc3c(N)nc(C#CCC4CCN(C(=O)OC(C)(C)C)CC4)nc32)C(O)C1O` (stereo in doubt) [JR-3259, 4-{3-[6-Amino-9-(5-ethylcarbamoyl-3,4-dihydroxytetrahydrofuran-2-yl)-9H-purin-2-yl]-prop-2-ynyl}-piperidine-1-carboxylic acid tert-butyl ester]: in the assay on human neutrophils, the EC50 was 3.47 nM. Moreover, the “PMN oxid + roli (-log EC50)” value in the assay with human neutrophils stood at 9.26. The results for the Ki (on human A1 AR (A1 ± SEM); on A3 AR (A3 ± SEM); in assay [1] (A2A ± SEM)) were 205 ± 2.6 nM, 45.6 ± 10 nM and 0.9 ± 0.1 nM, respectively. For the same compound, the A1/A2A on human A1 AR worked out at 227.8. Besides, the A3/A2A on A3 AR is reported as 50.7.
